Entries after “also recorded” stand apart in the source; their conditions may differ.
System: human BL0293 tumor cells (bladder cancer cells)
Test: Tumor growth of BL0293 patient-derived xenograft in NSG-Quad mice engrafted with human CD34+ hematopoietic stem cells
Type: in vivo, mouse
Conditions: NSG-Quad mice with human CD34+ HSC and BL0293 xenografts; intravenous 10 mg/kg on day 0, then 5 mg/kg on days 5, 10 and 15; versus vehicle; tumors 60-100 mm^3 at grouping
Experimental: NSG-Quad mice were irradiated with 50 cGy whole body radiation. NSG-SGM3 mice were irradiated with 50 cGy whole body radiation and NSG mice were irradiated with 100 cGy whole body radiation as controls. Each mouse received about 100,000 human CD34^+ hematopoietic stem cells from the same donor by injection. Blood cells obtained by retro-orbital bleeding at 10 weeks post-engraftment were assessed by flow cytometry for mouse CD45, human CD45, human CD20, human CD3, human CD33, human CD14, and human CD56 (FIG. 1A-F). Live cells were gated using LIVE/DEAD® (ThermFisher Scientific).
BR1126, MDA-MB-231, TM1149, and BL0293 tumor cells were separately implanted subcutaneously into NSG-Quad and NSG-SGM3 mice at 7-12 weeks post-CD34^+-cell engraftment (see Example 1). Tumor sizes were measured with calipers.
NSG-Quad mice xenografted with human BL0293 tumor cells (bladder cancer cells) were grouped when tumors reached 60-100 mm^3, and mice were then administered intravenous pembrolizumab at 10 mg/kg on day 0 followed by 5 mg/kg on days 5, 10, and 15. Tumor sizes were measured by calipers.
FIG. 5 is a graph depicting tumor volumes for NSG-Quad mice that have human CD34^+ hematopoietic stem cell xenografts and BL0293 patient-derived xenografts and receiving either pembrolizumab (Keytruda®) or vehicle. Each data point corresponds to a single mouse at a specific time-point. […]

pembrolizumab
tumor growth (tumor volume measured by calipers): reduced tumor growth rates; also recorded: slower tumor growth on average
